According to US10080758B2, “Tosylate salt of N-[3-[(4aR,7aS)-2-amino-6-(5-fluoropyrimidin-2-yl)-4,4a,5,7-tetrahydropyrrolo[3,4-d][1,3]thiazin-7a-yl]-4-fluoro-phenyl]-5-methoxy-pyrazine-2-carboxamide” (Eli Lilly and Company, priority 2015, dated 2018):
Values belong to the compound of their own block, whether it stands above or below them.

Legend:
Abeta 1-x peptide = experiment: In vivo inhibition of beta-secretase (brain Abeta 1-x lowering); parameters: species or system mice; settings: for Abeta 1-x peptide levels reduced, brain cortex / Abeta 1-x peptide levels reduced, brain hippocampus: three hours after administration, compared to vehicle-treated mice
Source text: Several animal models, including mouse, guinea pig, dog, and monkey, may be used to screen for inhibition of beta-secretase activity in vivo following compound treatment. Animals used in this invention can be wild type, transgenic, or gene knockout animals. For example, the PDAPP mouse model, prepared as described in Games et al., Nature 373, 523-527 (1995), and other non-transgenic or gene knockout animals are useful to analyze in vivo inhibition of Abeta and sAPPbeta production in the presence of inhibitory compounds. Generally, 2 to 12 month old PDAPP mice, gene knockout mice or non-transgenic animals are administered compound formulated in vehicles, such as corn oil, cyclodextran, phosphate buffers, […]®, or other suitable vehicles. One to twenty-four hours following the administration of compound, animals are sacrificed, and brains as well as cerebrospinal fluid and plasma are removed for analysis of Abetas, C99, and sAPP fragments. (See May, et al., Journal of Neuroscience, 31, 16507-16516 (2011)). For standard in vivo pharmacology studies, animals are dosed with various concentrations of compound and compared to a vehicle-treated control group dosed at the same time. For some time course studies, brain tissue, plasma, or cerebrospinal fluid is obtained from selected animals, beginning at time 0 to establish a baseline. Compound or appropriate vehicle is administered to other groups and sacrificed at various times after dosing. Brain tissue, plasma, or cerebrospinal fluid is obtained from selected animals and analyzed for the presence of APP cleavage products, including Abeta peptides, sAPPbeta, and other APP fragments, for example, by specific sandwich ELISA assays. At the end of the test period, animals are sacrificed and brain tissues, plasma, or cerebrospinal fluid are analyzed for the presence of Abeta peptides, C99, and sAPPbeta, as appropriate. Brain tissues of APP transgenic animals may also be analyzed for the amount of beta-amyloid plaques following compound treatment. “Abeta 1-x peptide” as used herein refers to the sum of Abeta species that begin with residue 1 and ending with a C-terminus greater than residue 28. This detects the majority of Abeta species and is often called “total Abeta”.

[1] = tested on: Abeta released by primary cortical neurons from PDAPP embryos; experiment: PDAPP primary neuronal assay (Abeta ELISA); assay type: cell-based; settings: Mus musculus, Primary cortical neuron; 24 hours incubation; Abeta 1-42; Mean ± SEM; read-out: PDAPP Neuron A-beta (1-42) ELISA IC50
[2] = Solvent retained in the crystal; assay type: physicochemical
[3] = Solid state physical stability versus relative humidity; assay type: physicochemical; settings: room temperature
Source text: Such physical instability is undesirable, particularly for a pharmaceutical drug substance or drug product, both of which are subject to regulatory controls regarding the solid state forms. […] As such, the tosylate salt of N-{3-[(4aR,7aS)-2-amino-6-(5-fluoropyrimidin-2-yl)-4a,5,6,7-tetrahydropyrrolo[3,4-d][1,3]thiazin-7a(4H)-yl]-4-fluoro-phenyl}-5-methoxypyrazine-2-carboxamide essentially avoids the humidity dependent phase transformations associated with the corresponding crystalline free base forms. […] The increased likelihood of the free base to undergo phase transitions during long term storage can lead to variability in properties, such as solubility or dissolution rate, which may compromise the performance of the drug product. It also poses the additional risk of collapse of the crystal structure(s) to an amorphous form or accumulation of defects and disorder, which could lead to chemical instability and reduced shelf-life of the drug product.

amount of solvent retained in the crystal [2]: about 7.7%
SMILES: COc1cnc(C(=O)Nc2ccc(F)c([C@]34CN(c5ncc(F)cn5)C[C@H]3CSC(N)=N4)c2)cn1.Cl [Preparation 46, N-[3-[(4aR,7aS)-2-Amino-6-(5-fluoropyrimidin-2-yl)-4,4a,5,7-tetrahydropyrrolo[3,4-d][1,3]thiazin-7a-yl]-4-fluoro-phenyl]-5-methoxy-pyrazine-2-carboxamide hydrochloride]
Abeta 1-x peptide levels reduced, brain cortex (Abeta 1-x peptide; 0.3 mg/kg oral dose): approximately 28% | Abeta 1-x peptide levels reduced, brain hippocampus (Abeta 1-x peptide; 0.3 mg/kg oral dose): approximately 31% | Abeta 1-x peptide levels reduced, brain cortex (Abeta 1-x peptide; 1 mg/kg oral dose): ~42% | Abeta 1-x peptide levels reduced, brain hippocampus (Abeta 1-x peptide; 1 mg/kg oral dose): ~39% | Abeta 1-x peptide levels reduced, brain cortex (Abeta 1-x peptide; 3 mg/kg oral dose): ~64% | Abeta 1-x peptide levels reduced, brain hippocampus (Abeta 1-x peptide; 3 mg/kg oral dose): ~61% | IC50 [1]: 0.228 nM

relative humidity at which the crystal form is present / stable [3]: greater than 15 % relative humidity | relative humidity at which the crystal form is present / stable ([3]; listed as crystalline form 2): above 15 % relative humidity
SMILES: COc1cnc(C(=O)Nc2ccc(F)c([C@]34CN(c5ncc(F)cn5)C[C@@H]3CN=C(N)S4)c2)cn1.O [Crystalline Form 2, Crystalline Form 2 N-[3-[(4aR,7aS)-2-Amino-6-(5-fluoropyrimidin-2-yl)-4,4a,5,7-tetrahydropyrrolo[3,4-d][1,3]thiazin-7a-yl]-4-fluoro-phenyl]-5-methoxy-pyrazine-2-carboxamide (Hydrated)]

CNS penetration (Abeta 1-x peptide): demonstrate CNS penetration
SMILES: COc1cnc(C(=O)Nc2ccc(F)c([C@]34CN(c5ncc(F)cn5)C[C@H]3CSC(N)=N4)c2)cn1 [N-[3-[(4aR,7aS)-2-amino-6-(5-fluoropyrimidin-2-yl)-4,4a,5,7-tetrahydropyrrolo[3,4-d][1,3]thiazin-7a-yl]-4-fluoro-phenyl]-5-methoxy-pyrazine-2-carboxamide]
